{"source": "patent US4994582A", "about": "“Novel antibiotic NK130119” (Nippon Kayaku Kabushiki Kaisha, priority 1989, dated 1991)", "key": {"Altenaria kikuchiana": {"system": "Altenaria kikuchiana", "test": "antifungal spectrum on Czapek Dox solution agar", "format": "cell-based", "conditions": "read-out: Minimum inhibitory concentration", "text": "(§1) the antifungal spectrum of the compound of the present invention was examined."}, "Aspergillus niger": {"system": "Aspergillus niger", "test": "antifungal spectrum on Czapek Dox solution agar", "format": "cell-based", "conditions": "read-out: Minimum inhibitory concentration", "text": "as §1"}, "Aspergillus oryzae": {"system": "Aspergillus oryzae", "test": "antifungal spectrum on Czapek Dox solution agar", "format": "cell-based", "conditions": "read-out: Minimum inhibitory concentration", "text": "as §1"}, "Candida albicans": {"system": "Candida albicans", "test": "antifungal spectrum on Czapek Dox solution agar", "format": "cell-based", "conditions": "read-out: Minimum inhibitory concentration", "text": "as §1"}, "Fusarium roseum f. sp.": {"system": "Fusarium roseum f. sp.", "test": "antifungal spectrum on Czapek Dox solution agar", "format": "cell-based", "conditions": "Fusarium sambucinum, read-out: Minimum inhibitory concentration", "text": "as §1"}, "Mucor javanicus": {"system": "Mucor javanicus", "test": "antifungal spectrum on Czapek Dox solution agar", "format": "cell-based", "conditions": "read-out: Minimum inhibitory concentration", "text": "as §1"}, "Mycosphaerella melonis": {"system": "Mycosphaerella melonis", "test": "antifungal spectrum on Czapek Dox solution agar", "format": "cell-based", "conditions": "read-out: Minimum inhibitory concentration", "text": "as §1"}, "Penicillium chrysogenum": {"system": "Penicillium chrysogenum", "test": "antifungal spectrum on Czapek Dox solution agar", "format": "cell-based", "conditions": "read-out: Minimum inhibitory concentration", "text": "as §1"}, "Rhizopus hangchao": {"system": "Rhizopus hangchao", "test": "antifungal spectrum on Czapek Dox solution agar", "format": "cell-based", "conditions": "read-out: Minimum inhibitory concentration", "text": "as §1"}, "Saccharomyces cerevisiae": {"system": "Saccharomyces cerevisiae", "test": "antifungal spectrum on Czapek Dox solution agar", "format": "cell-based", "conditions": "read-out: Minimum inhibitory concentration", "text": "as §1"}, "[1]": {"system": "Sporobolomyces salmonicolor", "test": "antifungal spectrum on Czapek Dox solution agar", "format": "cell-based", "conditions": "read-out: Minimum inhibitory concentration", "text": "as §1"}, "HeLa S3 cells": {"system": "HeLa S3 cells", "test": "growth-inhibitory effect on HeLa S3 culture cells, dye exclusion method", "format": "cell-based", "conditions": "Homo sapiens, 72 h", "procedure": "The growth-inhibitory effect of the compound of the present invention on HeLa S3 culture cells was examined. A 96-well plate was inoculated with HeLa S3 cells at a ratio of 1.5×10^3 cells/well and incubated. One day after the inoculation, the compound of the present invention was added to the culture medium at various concentrations. Three days after the addition, cells in each well were counted by the dye exclusion method to thereby evaluate the growth-inhibitory effect of the compound of the present invention at various concentrations on HeLa S3 cells."}, "[2]": {"system": "mouse colonic cancer cells (Colon 26)", "test": "growth-inhibitory effect on mouse colonic cancer cells, dye exclusion method", "format": "cell-based", "procedure": "The growth-inhibitory effects of the compound of the present invention on mouse colonic cancer cells (Colon 26) and human colonic cancer cells (SW1116) were examined. A 96-well plate was inoculated with mouse colonic cancer cells at a ratio of 1.5×10^3 cells per well, while another 96-well plate was inoculated with human colonic cancer cells at a ratio of 3.0×10^3 per well. These cells were incubated in an incubator at 37° C. under 5% CO2 for 24 hours. Then the compound of the present invention was added thereto at various concentrations. Cells in each well were counted by the dye exclusion method 65 hours and 96 hours after the addition to thereby evaluate the growth-inhibitory effect of the test compound on the mouse colonic cancer cells and that on the human colonic cancer cells."}, "[3]": {"system": "vascularization by the Ehrlich asoites tumor cells crude extract", "test": "vascularization-inhibitory effect, rabbit corneal assay", "format": "in vivo", "conditions": "slow-releasing pellet in cornea", "procedure": "The vascularization-inhibitory effect of the compound of the present invention was examined by rabbit corneal assay reported by M. A. Gimbrone et al. (J. National Cancer Inst., 52, 412 (1974)). Namely, the center of the cornea of the eye of a rabbit was incised with a knife at a length of approximately 2 mm to thereby form a pouch. Then a slow-releasing pellet containing 100 μg of a crude extract of Ehrlich asoites tumor cells, which had been preliminarily prepared according to a method proposed by R. Langer et al. (Nature, 263, 797 ([…])), was introduced into the pouch. Further another slow-releasing pellet containing 0.3 to 81 μg of the compound of the present invention was introduced there into so as to contact these pellets with each other."}, "[4]": {"system": "larva of mosquito culices (a sensitive species)", "test": "insecticidal action, mortality of mosquito larvae", "format": "in vivo", "conditions": "read-out: Mortality rate, larvae of mosquito", "procedure": "The insecticidal action of the compound of the present invention was examined by the following method.\n(2) A larva of mosquito culices (a sensitive species) was used as a test vermin, and the mortality rate thereof was assayed according to an ordinary method (described on page 109 of \"Noyaku Jikkenho I, Sacchuzaihen\" published by Soft Science, Inc.).\nSpecifically, 10 ml of well water was placed in a vessel (15-ml Petridish), and 5 larvae of mosquito culices (the third stage) were released in the vessel. A solution of the compound of the present invention in acetone (0.1%) was added thereto so as to have a predetermined concentration. The vessel was allowed to stand in a thermostatic chamber (26°±1° C.) for a predetermined period of time, and the life and death of the test vermin were investigated."}, "acute toxicity on mice": {"test": "acute toxicity on mice", "conditions": "mouse, in vivo, ip"}, "solubility": {"test": "solubility", "format": "physicochemical"}}, "note": "Read-outs that look alike come from different tables or passages of the source."}
{"smiles": "CCC1/C=C/C=C/CC(C)C(O)C(C)(O)C(=O)C(C)C(O)C(C)C(=O)C(C)C(O)C(C)/C=C/C(=O)OC2C(C)C(CC1)OC1(CCC(C)C(CC(C)O)O1)C2CC", "note": "(centres unmarked) [NK130119]", "values": [{"measurement": "MIC", "setting": "Altenaria kikuchiana", "value": 0.78, "unit": "µg/mL"}, {"measurement": "MIC", "setting": "Aspergillus niger", "value": 1.56, "unit": "µg/mL"}, {"measurement": "MIC", "setting": "Aspergillus oryzae", "value": 1.56, "unit": "µg/mL"}, {"measurement": "MIC", "setting": "Candida albicans", "value": "> 100", "unit": "µg/mL"}, {"measurement": "MIC", "setting": "Fusarium roseum f. sp.", "value": 0.39, "unit": "µg/mL"}, {"measurement": "MIC", "setting": "Mucor javanicus", "value": "> 100", "unit": "µg/mL"}, {"measurement": "MIC", "setting": "Mycosphaerella melonis", "value": 1.56, "unit": "µg/mL"}, {"measurement": "MIC", "setting": "Penicillium chrysogenum", "value": 0.78, "unit": "µg/mL"}, {"measurement": "MIC", "setting": "Rhizopus hangchao", "value": "> 100", "unit": "µg/mL"}, {"measurement": "MIC", "setting": "Saccharomyces cerevisiae", "value": "> 100", "unit": "µg/mL"}, {"measurement": "MIC", "setting": "[1]", "value": "> 100", "unit": "µg/mL"}, {"measurement": "inhibition at 0.039 µg/mL", "setting": "HeLa S3 cells; HeLa S3, 0.039 μg/ml, three days, read-out: Growth-inhibitory ratio", "value": 40, "unit": "%"}, {"measurement": "inhibition at 0.156 µg/mL", "setting": "HeLa S3 cells; HeLa S3, 0.156 μg/ml, three days, read-out: Growth-inhibitory ratio", "value": 43.5, "unit": "%"}, {"measurement": "inhibition at 0.625 µg/mL", "setting": "HeLa S3 cells; HeLa S3, 0.625 μg/ml, three days, read-out: Growth-inhibitory ratio", "value": 47.5, "unit": "%"}, {"measurement": "inhibition at 2.5 µg/mL", "setting": "HeLa S3 cells; HeLa S3, 2.5 μg/ml, three days, read-out: Growth-inhibitory ratio", "value": 55.3, "unit": "%"}, {"measurement": "inhibition at 10 µg/mL", "setting": "HeLa S3 cells; HeLa S3, 10 μg/ml, three days, read-out: Growth-inhibitory ratio", "value": 83.6, "unit": "%"}, {"measurement": "IC50", "setting": "HeLa S3 cells; HeLa S3 cells, three days after addition", "value": 0.987, "unit": "µg/mL"}, {"measurement": "inhibition at 0.0006 µg/mL", "setting": "[2]; Mus musculus, Colon 26, 0.0006 μg/ml, read-out: Growth-inhibitory ratio", "value": 2.54, "unit": "%"}, {"measurement": "inhibition at 0.0024 µg/mL", "setting": "[2]; Mus musculus, Colon 26, 0.0024 μg/ml, read-out: Growth-inhibitory ratio", "value": 4.17, "unit": "%"}, {"measurement": "inhibition at 0.0098 µg/mL", "setting": "[2]; Mus musculus, Colon 26, 0.0098 μg/ml, read-out: Growth-inhibitory ratio", "value": 41, "unit": "%"}, {"measurement": "inhibition at 0.039 µg/mL", "setting": "[2]; Mus musculus, Colon 26, 0.039 μg/ml, read-out: Growth-inhibitory ratio", "value": 87.6, "unit": "%"}, {"measurement": "inhibition at 0.156 µg/mL", "setting": "[2]; Mus musculus, Colon 26, 0.156 μg/ml, read-out: Growth-inhibitory ratio", "value": 90.3, "unit": "%"}, {"measurement": "inhibition at 0.625 µg/mL", "setting": "[2]; Mus musculus, Colon 26, 0.625 μg/ml, read-out: Growth-inhibitory ratio", "value": 88.9, "unit": "%"}, {"measurement": "inhibition at 2.5 µg/mL", "setting": "[2]; Mus musculus, Colon 26, 2.5 μg/ml, read-out: Growth-inhibitory ratio", "value": 96, "unit": "%"}, {"measurement": "inhibition at 10 µg/mL", "setting": "[2]; Mus musculus, Colon 26, 10 μg/ml, read-out: Growth-inhibitory ratio", "value": 101, "unit": "%"}, {"measurement": "IC50", "setting": "[2]; mouse colonic cancer cells (Colon 26), cells counted 65 hours and 96 hours after addition", "value": "< 0.025", "unit": "µg/mL"}, {"measurement": "retardation of vascularization compared with control group", "setting": "[3]; 1 μg or above", "value": "significantly retarded till the fourth day"}, {"measurement": "retardation of vascularization compared with control group", "setting": "[3]; 2.7 ug or above", "value": "till the eighth day"}, {"measurement": "mortality at 1 ppm", "setting": "[4]; 48 h, after 2 days", "value": 73, "unit": "%"}, {"measurement": "mortality at 10 ppm", "setting": "[4]; 48 h, after 2 days", "value": 100, "unit": "%"}, {"measurement": "mortality at 1 ppm", "setting": "[4]; 144 h, after 6 days", "value": 80, "unit": "%"}, {"measurement": "mortality at 10 ppm", "setting": "[4]; 144 h, after 6 days", "value": 100, "unit": "%"}, {"measurement": "mortality at 1 ppm", "setting": "[4]; 216 h, after 9 days", "value": 80, "unit": "%"}, {"measurement": "mortality at 10 ppm", "setting": "[4]; 216 h, after 9 days", "value": 100, "unit": "%"}, {"measurement": "LD50", "setting": "acute toxicity on mice", "value": 0.05, "unit": "mg/kg"}, {"measurement": "solubility in hexane", "setting": "solubility; hexane", "value": "hardly soluble"}, {"measurement": "solubility in organic solvents", "setting": "solubility; methanol, acetone, ethyl acetate and ethanol", "value": "soluble"}, {"measurement": "solubility in water", "setting": "solubility; water", "value": "hardly soluble"}]}
